Measurements published in patent publication US9850283B2, “Macrocyclic inhibitors of the PD-1/PD-L1 and CD80(B7-1)/PD-L1 protein/protein interactions” (BRISTOL-MYERS SQUIBB COMPANY, priority 2013, dated 2017).
Like-named read-outs stand apart in the source and are kept apart here. Starred links: 1 amine or outer side, 2 acyl side, 3 side chain; linkers in the order of their positions; H or OH if unused. Positions of bridges follow the written chain, without caps; N, C: chain ends. Non-standard residues stand in square brackets, D forms with d. Residues, ends and D or L forms follow the SMILES beside them. ξ: configuration not given here. X2 = CCOc1ccc(-c2[nH]c3ccccc3c2C[C@H](N[*:1])C(=O)[*:2])cc1; Phe(4-CF3) = N[C@@H](Cc1ccc(C(F)(F)F)cc1)C(=O)O; Pro(trans-4-F) = O=C(O)[C@@H]1C[C@@H](F)CN1; Hyp = O=C(O)[C@@H]1C[C@@H](O)CN1; hPhe = N[C@@H](CCc1ccccc1)C(=O)O; NMeNle = CCCC[C@H](NC)C(=O)O; ξR = N=C(N)NCCCC(N)C(=O)O; NMeA = CN[C@@H](C)C(=O)O; Orn = NCCC[C@H](N)C(=O)O; Dab = NCC[C@H](N)C(=O)O; Dap = NC[C@H](N)C(=O)O; Aib = CC(C)(N)C(=O)O; Sar = CNCC(=O)O

Experiments:
[1] = biological target: T1, Human PD-L1/PD-1 (Homo sapiens, UniProt Q9NZQ7); test: HTRF PD-1-Ig/PD-L1-His binding assay (human PD-L1); settings: cluster symbol; read-out: HTRF IC50 cluster
T1 construct: made in house; host or cells: HEK293T
T1 sequence (Q9NZQ7 with tags, fused parts or gaps): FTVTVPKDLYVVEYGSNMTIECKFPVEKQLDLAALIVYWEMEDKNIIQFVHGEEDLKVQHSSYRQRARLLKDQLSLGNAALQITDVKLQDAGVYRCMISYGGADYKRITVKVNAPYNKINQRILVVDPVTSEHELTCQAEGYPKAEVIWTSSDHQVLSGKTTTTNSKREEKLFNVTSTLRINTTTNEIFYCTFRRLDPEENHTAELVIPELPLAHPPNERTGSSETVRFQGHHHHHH
Method in brief: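 The time-resolved fluorescence signal comes from Eu-cryptate anti-Ig (1 nM) and APC anti-His (20 nM) antibodies bound to a PD-1-Ig/PD-L1-His complex. Both partners lack transmembrane regions.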

[2] = biological target: T2, LK35.2-hPD-L1 cells / PE-labeled PD-1-Ig (Homo sapiens, UniProt Q9NZQ7); test: LK35.2-hPD-L1 cell binding high-content screening assay; type: cell-based; settings: cluster symbol, read-out: CBA IC50 cluster
T2 construct: expressed in transfected cells; host or cells: LK35.2 mouse B cell line
T2 sequence (Q9NZQ7 19-290): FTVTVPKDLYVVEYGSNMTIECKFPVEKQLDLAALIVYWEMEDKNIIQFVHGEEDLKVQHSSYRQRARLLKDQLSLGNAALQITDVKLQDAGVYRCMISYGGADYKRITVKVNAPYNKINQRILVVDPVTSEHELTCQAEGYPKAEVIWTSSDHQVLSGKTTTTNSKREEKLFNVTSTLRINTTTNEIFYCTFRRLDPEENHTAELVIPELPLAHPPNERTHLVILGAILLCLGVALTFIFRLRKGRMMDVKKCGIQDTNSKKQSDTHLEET
Method in brief: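 Binding of PE-conjugated human PD-1-Ig (1 nM final) to human PD-L1 stably expressed on a mouse B-cell line (LK35.2) was measured by high-content imaging after washes. Compound and labeled PD-1-Ig were co-incubated 1 h at 37 °C with cells in RPMI/10% FCS.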

[3] = cell line of CBA not given (LK35.2-hPD-L1 or 293T-hPD-L1)
[4] = cell binding assay, cell line not given

SMILES | IC50 [1] [nM] | IC50 [2, 3] [nM] | IC50 [2, 4] [nM]
CCCC[C@H]1C(=O)N[C@@H](CCCNC(=N)N)C(=O)N[C@H](C(=O)NCC(N)=O)CSCC(=O)N[C@@H](Cc2ccccc2)C(=O)N(C)[C@@H](C)C(=O)N[C@@H](CC(N)=O)C(=O)N2CCC[C@H]2C(=O)N[C@@H](Cc2cnc[nH]2)C(=O)N[C@@H](CC(C)C)C(=O)N(C)CC(=O)N[C@@H](Cc2c[nH]c3ccccc23)C(=O)N[C@@H](CO)C(=O)N[C@@H](Cc2c[nH]c3ccccc23)C(=O)N[C@@H](CCc2ccccc2)C(=O)N1C [Example 1006] ({CH2CO}-F[NMeA]NPHL[Sar]WSW[hPhe][NMeNle]RCG-NH2; thioether N-14) | > 30.5 | > 74.3 | –
CCCC[C@H]1C(=O)N(C)[C@@H](CCCC)C(=O)N[C@@H](CCCNC(=N)N)C(=O)N[C@H](C(=O)NCC(N)=O)CSCC(=O)N[C@@H](Cc2ccc(O)cc2)C(=O)N(C)[C@@H](C)C(=O)N[C@@H](CC(N)=O)C(=O)N2CCC[C@H]2C(=O)N[C@@H](Cc2cnc[nH]2)C(=O)N[C@@H](CCCN)C(=O)N2C[C@H](O)C[C@H]2C(=O)N[C@@H](Cc2c[nH]c3ccccc23)C(=O)N[C@@H](CO)C(=O)N[C@@H](Cc2c[nH]c3ccccc23)C(=O)N1C [Example 5023] ({CH2CO}-Y[NMeA]NPH[Orn][Hyp]WSW[NMeNle][NMeNle]RCG-NH2; thioether N-14) | 6.76 to 30.3 | – | 4.78 to 72.9
CCCC[C@H]1C(=O)N(C)[C@@H](CCCC)C(=O)N[C@@H](CCCNC(=N)N)C(=O)N[C@H](C(=O)NCC(N)=O)CSCC(=O)N[C@@H](Cc2ccccc2)C(=O)N(C)[C@@H](C)C(=O)N[C@@H](CC(N)=O)C(=O)N2CCC[C@H]2C(=O)N[C@@H](Cc2cnc[nH]2)C(=O)N[C@@H](CC(C)C)C(=O)N(C)CC(=O)N[C@@H](Cc2c[nH]c3ccccc23)C(=O)NC(C)(C)C(=O)N[C@@H](Cc2c[nH]c3ccccc23)C(=O)N1C [Example 1116] ({CH2CO}-F[NMeA]NPHL[Sar]W[Aib]W[NMeNle][NMeNle]RCG-NH2; thioether N-14) | > 30.5 | > 74.3 | –
CCCC[C@H]1C(=O)N(C)[C@@H](CCCC)C(=O)N[C@@H](CCCNC(=N)N)C(=O)N[C@H](C(=O)NCC(N)=O)CSCC(=O)N[C@@H](Cc2ccc(O)cc2)C(=O)N(C)[C@@H](C)C(=O)N[C@@H](CCCCN)C(=O)N2CCC[C@H]2C(=O)N[C@@H](Cc2c[nH]cn2)C(=O)N[C@@H](CCC(=O)O)C(=O)N2C[C@H](O)C[C@H]2C(=O)N[C@@H](Cc2c[nH]c3ccccc23)C(=O)N[C@@H](CO)C(=O)N[C@@H](Cc2c[nH]c3ccccc23)C(=O)N1C [Example 5124] ({CH2CO}-Y[NMeA]KPHE[Hyp]WSW[NMeNle][NMeNle]RCG-NH2; thioether N-14) | 0.385 to 6.74 | – | 0.158 to 4.71
CCCC[C@H]1C(=O)N(C)[C@@H](CCCC)C(=O)N[C@@H](CCCN)C(=O)N[C@H](C(=O)NCC(N)=O)CSCC(=O)N[C@@H](Cc2ccc(O)cc2)C(=O)N(C)[C@@H](C)C(=O)N[C@@H](CC(N)=O)C(=O)N2CCC[C@H]2C(=O)N[C@@H](CN)C(=O)N[C@@H](CC(C)C)C(=O)N2C[C@H](F)C[C@H]2C(=O)N[C@@H](Cc2c[nH]c3ccccc23)C(=O)N[C@@H](CO)C(=O)N[C@@H](Cc2c[nH]c3ccccc23)C(=O)N1C [Example 13003] ({CH2CO}-Y[NMeA]NP[Dap]L[Pro(trans-4-F)]WSW[NMeNle][NMeNle][Orn]CG-NH2; thioether N-14) | 0.385 to 6.74 | – | 0.158 to 4.71
CCCC[C@H]1C(=O)N(C)[C@@H](CCCC)C(=O)N[C@@H](CCCNC(=N)N)C(=O)N[C@H](C(=O)NCC(N)=O)CSCC(=O)N[C@@H](Cc2ccc(C(F)(F)F)cc2)C(=O)N(C)[C@@H](C)C(=O)N[C@@H](CC(N)=O)C(=O)N2CCC[C@H]2C(=O)N[C@@H](CN)C(=O)N[C@@H](CC(C)C)C(=O)N2C[C@H](O)C[C@H]2C(=O)N[C@@H](Cc2c[nH]c3ccccc23)C(=O)N[C@@H](CO)C(=O)N[C@@H](Cc2c[nH]c3ccccc23)C(=O)N1C [Example 7030] ({CH2CO}-[Phe(4-CF3)][NMeA]NP[Dap]L[Hyp]WSW[NMeNle][NMeNle]RCG-NH2; thioether N-14) | 0.385 to 6.74 | – | 4.78 to 72.9
CCCC[C@H]1C(=O)N(C)[C@@H](CCCC)C(=O)N[C@@H](CCCNC(=N)N)C(=O)N[C@H](C(=O)NCC(N)=O)CSCC(=O)N[C@@H](Cc2ccc(O)cc2)C(=O)N(C)[C@@H](C)C(=O)N[C@@H](CCN)C(=O)N2CCC[C@H]2C(=O)N[C@@H](Cc2c[nH]cn2)C(=O)N[C@@H](CC(=O)O)C(=O)N2C[C@H](O)C[C@H]2C(=O)N[C@@H](Cc2c[nH]c3ccccc23)C(=O)N[C@@H](CO)C(=O)N[C@@H](Cc2c[nH]c3ccccc23)C(=O)N1C [Example 5132] ({CH2CO}-Y[NMeA][Dab]PHD[Hyp]WSW[NMeNle][NMeNle]RCG-NH2; thioether N-14) | 6.76 to 30.3 | – | 4.78 to 72.9
CC(C)C[C@@H]1NC(=O)[C@H](Cc2cnc[nH]2)NC(=O)[C@@H]2CCCN2C(=O)[C@H](CC(N)=O)NC(=O)[C@H](C)N(C)C(=O)[C@H](Cc2ccccc2)NC(=O)CSC[C@@H](C(=O)NCC(N)=O)NC(=O)[C@H](CCCNC(=N)N)NC(=O)[C@H](C)N(C)C(=O)[C@H](CCCc2ccccc2)NC(=O)[C@H](Cc2c[nH]c3ccccc23)NC(=O)[C@H](CO)NC(=O)[C@H](Cc2c[nH]c3ccccc23)NC(=O)CN(C)C1=O [Example 1108] (HELM PEPTIDE1{[O=C(C[*:3])[*:2]].F.[meA].N.P.H.L.[Sar].W.S.W.[O=C([C@H](CCCc1ccccc1)N[*:1])[*:2]].[meA].R.C.G.[am]}$PEPTIDE1,PEPTIDE1,1:R3-15:R3$$$V2.0) | > 30.5 | > 74.3 | –
CCCC[C@H]1C(=O)N(C)[C@@H](CCCC)C(=O)N[C@@H](CC(C)C)C(=O)N[C@H](C(=O)NCC(N)=O)CSCC(=O)N[C@@H](Cc2ccc(O)cc2)C(=O)N(C)[C@@H](C)C(=O)N[C@@H](CC(N)=O)C(=O)N2CCC[C@H]2C(=O)N[C@@H](CN)C(=O)N[C@@H](CC(C)C)C(=O)N2C[C@H](O)C[C@H]2C(=O)N[C@@H](Cc2c[nH]c3ccccc23)C(=O)N[C@@H](CO)C(=O)N[C@@H](Cc2c[nH]c3ccccc23)C(=O)N1C [Example 5070] ({CH2CO}-Y[NMeA]NP[Dap]L[Hyp]WSW[NMeNle][NMeNle]LCG-NH2; thioether N-14) | 0.385 to 6.74 | – | 0.158 to 4.71
CCCC[C@H]1C(=O)N(C)[C@@H](CCCC)C(=O)NC(CCCNC(=N)N)C(=O)N[C@H](C(=O)NCC(N)=O)CSCC(=O)N[C@@H](Cc2ccc(O)cc2)C(=O)N(C)[C@@H](C)C(=O)N[C@@H](CC(N)=O)C(=O)N2CCC[C@H]2C(=O)N[C@@H](CN)C(=O)N[C@@H](CC(C)C)C(=O)N2CCC[C@H]2C(=O)N[C@@H](Cc2c[nH]c3ccccc23)C(=O)N[C@@H](CO)C(=O)N[C@@H](Cc2c(-c3ccc(OCC)cc3)[nH]c3ccccc23)C(=O)N1C (stereo partly shown) [Example 7011] ({CH2CO}-Y[NMeA]NP[Dap]LPWS[X2][NMeNle][NMeNle][ξR]CG-NH2; thioether N-14) | 0.385 to 6.74 | – | 4.78 to 72.9
CCCC[C@H]1C(=O)N2CCC[C@@H]2C(=O)N[C@@H](CC(=O)O)C(=O)N[C@@H](C(C)C)C(=O)N(C)[C@@H](Cc2ccccc2)C(=O)N[C@@H](Cc2ccc(O)cc2)C(=O)N2CCC[C@@H]2C(=O)N[C@@H](Cc2c[nH]c3ccccc23)C(=O)N[C@@H](Cc2ccc(O)cc2)C(=O)N[C@@H](CC(C)C)C(=O)N[C@H](C(=O)NCC(N)=O)CSCC(=O)N[C@@H](Cc2ccccc2)C(=O)N(C)[C@@H](Cc2ccccc2)C(=O)N1C [Example 3574] (HELM PEPTIDE1{[O=C(C[*:3])[*:2]].F.[meF].[CCCC[C@@H](C(=O)[*:2])N(C)[*:1]].[dP].D.V.[meF].Y.[dP].W.Y.L.C.G.[am]}$PEPTIDE1,PEPTIDE1,1:R3-14:R3$$$V2.0) | 6.76 to 30.3 | – | 0.158 to 4.71
